Measured values: paper PMC3675134, “Comprehensive Enzymatic Analysis of the Cellulolytic System in Digestive Fluid of the Sea Hare Aplysia kurodai. Efficient Glucose Release from Sea Lettuce by Synergistic Action of 45 kDa Endoglucanase and 210 kDa ß-Glucosidase” (PLoS ONE, 2013)

Tests used:
210K ß-glucosidase [1] = system: T1, 210K ß-glucosidase; assay: cellobiose hydrolysis; Lineweaver-Burk; type: biochemical, Aplysia kurodai; conditions: read-out: 210 K; 37°C; printed unit doubtful: the printed Vmax/Km scale implies mM; heading: 210 K
T1 construct: gene 210K BGL; native, purified from digestive fluid; 210 kDa by SDS-PAGE; glycoprotein

210K ß-glucosidase [2] = molecular target: T1, 210K ß-glucosidase; assay: inhibition of 4MU-ß-glucoside hydrolysis, fluorometric; Cornish-Bowden; type: biochemical, Aplysia kurodai; conditions: substrate 4MU-ß-glucoside; 37°C; mixed
Excerpt: inhibition of 4MU-ß-glucoside hydrolysis, fluorometric; Cornish-Bowden on 210K ß-glucosidase

110K ß-glucosidase [3] = molecular target: T2, 110K ß-glucosidase (Aplysia kurodai, UniProt A0A1V1FXL2); assay: inhibition of 4MU-ß-glucoside hydrolysis, fluorometric; Lineweaver-Burk; type: biochemical; conditions: substrate 4MU-ß-glucoside; 37°C; competitive
T2 construct: gene ApBGL; native, purified from digestive fluid; 110 kDa by SDS-PAGE; glycoprotein
Excerpt: inhibition of 4MU-ß-glucoside hydrolysis, fluorometric; Lineweaver-Burk on 110K ß-glucosidase

210K ß-glucosidase [4] = system: T1, 210K ß-glucosidase; assay: 4-methylumbelliferone release, fluorometric; Lineweaver-Burk; type: biochemical, Aplysia kurodai; conditions: 37°C
Excerpt: 4-methylumbelliferone release, fluorometric; Lineweaver-Burk on 210K ß-glucosidase

110K ß-glucosidase [5] = molecular target: T2, 110K ß-glucosidase; assay: inhibition of 4MU-ß-glucoside hydrolysis; type: biochemical; conditions: substrate 4MU-ß-glucoside; compound name doubtful (preceding sentence speaks of conduritol B epoxide)

T2 sequence (A0A1V1FXL2 24-994): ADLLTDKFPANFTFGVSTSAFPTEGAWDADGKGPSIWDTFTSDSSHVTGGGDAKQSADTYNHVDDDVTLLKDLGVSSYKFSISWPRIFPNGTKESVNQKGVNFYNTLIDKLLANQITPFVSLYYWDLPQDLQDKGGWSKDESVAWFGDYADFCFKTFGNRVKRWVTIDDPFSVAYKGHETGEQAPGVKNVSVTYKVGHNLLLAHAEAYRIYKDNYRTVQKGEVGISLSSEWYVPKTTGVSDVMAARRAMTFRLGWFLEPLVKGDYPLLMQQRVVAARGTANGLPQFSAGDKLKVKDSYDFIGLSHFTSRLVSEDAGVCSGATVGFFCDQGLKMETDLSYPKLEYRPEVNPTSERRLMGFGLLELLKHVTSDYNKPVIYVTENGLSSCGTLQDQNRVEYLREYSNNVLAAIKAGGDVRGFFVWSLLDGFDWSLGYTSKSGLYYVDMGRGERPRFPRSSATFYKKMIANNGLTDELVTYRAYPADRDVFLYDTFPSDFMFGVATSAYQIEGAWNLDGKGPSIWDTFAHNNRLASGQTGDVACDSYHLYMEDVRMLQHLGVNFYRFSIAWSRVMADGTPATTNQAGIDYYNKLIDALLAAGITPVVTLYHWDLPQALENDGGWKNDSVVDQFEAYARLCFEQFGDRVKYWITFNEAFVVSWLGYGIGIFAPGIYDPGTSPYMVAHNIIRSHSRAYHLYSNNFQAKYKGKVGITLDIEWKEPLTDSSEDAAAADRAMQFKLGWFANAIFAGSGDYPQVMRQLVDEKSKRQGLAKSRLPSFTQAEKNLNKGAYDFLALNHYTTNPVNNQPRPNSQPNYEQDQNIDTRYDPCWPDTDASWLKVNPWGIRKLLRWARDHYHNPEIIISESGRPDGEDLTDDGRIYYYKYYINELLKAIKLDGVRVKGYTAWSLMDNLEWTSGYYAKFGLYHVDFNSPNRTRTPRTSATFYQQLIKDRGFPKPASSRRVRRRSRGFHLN

Which Km (210K ß-glucosidase [1]) does the source give for `OC[C@H]1O[C@@H](O[C@H]2[C@H](O)[C@@H](O)C(O)O[C@@H]2CO)[C@H](O)[C@@H](O)[C@@H]1O` (stereo partly drawn) [cellobiose] here?
The Km was 1.93 ± 0.15 mM.

For `O=C1O[C@H](CO)[C@@H](O)[C@H](O)[C@H]1O` [D-glucono-1,5-lactone], which Ki (210K ß-glucosidase [2]) is on record?
Its Ki is 8.1 ± 0.2 µM.

And the Ki (110K ß-glucosidase [3])?
The Ki was 3.66 ± 0.47 µM.

For `Cc1cc(=O)oc2cc(O[C@@H]3O[C@H](CO)[C@H](O)[C@H](O)[C@H]3O)ccc12` [4MU-ß-galactoside], which Km (210K ß-glucosidase [4]) is on record?
The Km was 199 ± 5 µM.

For Conduritol B-sulfate, which “% inhibition at 10 mM” value (110K ß-glucosidase [5]) is on record?
The value was 48%.

With `Cc1cc(=O)oc2cc(O[C@@H]3O[C@H](CO)[C@@H](O)[C@H](O)[C@H]3O)ccc12` [4MU-ß-glucoside] as the compound, how does the Km (210K ß-glucosidase [4]) read?
Its Km is 105 ± 11 µM.
